Measurements from PMC6079014, “Calcium is an essential cofactor for metal efflux by the ferroportin transporter family” (Nature Communications, 2018).
Where “and” joins values, the source holds several entries; their conditions need not be identical. Equal entries are not always repeated. Where two headings read alike, the source gives them in different places.

What was measured:
BbFpn E203A = BbFpn E203A (Bdellovibrio bacteriovorus, UniProt Q6MLJ0, E203A); test: Isothermal titration calorimetry, E203A BbFpn; assay type: binding, Bdellovibrio bacteriovorous
wild type BbFpn = wild type BbFpn (Bdellovibrio bacteriovorus, UniProt Q6MLJ0); test: biochemical; assay type: binding, Bdellovibrio bacteriovorous
BbFpn Q84E = BbFpn Q84E (Bdellovibrio bacteriovorus, UniProt Q6MLJ0, Q84E); test: Isothermal titration calorimetry, Q84E BbFpn; assay type: binding, Bdellovibrio bacteriovorous
BbFpn D24A = BbFpn D24A (Bdellovibrio bacteriovorus, UniProt Q6MLJ0, D24A); test: Isothermal titration calorimetry, D24A BbFpn; assay type: binding, Bdellovibrio bacteriovorous
mouse Fpn (Fpn-C2) = biological target: T1, mouse Fpn (Fpn-C2) (Mus musculus, UniProt Q9JHI9, DEL251-290/DEL401-449); test: Isothermal titration calorimetry, thermostabilized mouse Fpn construct Fpn-C2; assay type: binding
T1 construct: generated from full-length mouse Fpn (UniProt: Q9JHI9); GFP (C); made in house; host or cells: Sf9 insect cells (baculovirus)
T1 sequence (Q9JHI9 with tags, fused parts or gaps DEL251-290/DEL401-449): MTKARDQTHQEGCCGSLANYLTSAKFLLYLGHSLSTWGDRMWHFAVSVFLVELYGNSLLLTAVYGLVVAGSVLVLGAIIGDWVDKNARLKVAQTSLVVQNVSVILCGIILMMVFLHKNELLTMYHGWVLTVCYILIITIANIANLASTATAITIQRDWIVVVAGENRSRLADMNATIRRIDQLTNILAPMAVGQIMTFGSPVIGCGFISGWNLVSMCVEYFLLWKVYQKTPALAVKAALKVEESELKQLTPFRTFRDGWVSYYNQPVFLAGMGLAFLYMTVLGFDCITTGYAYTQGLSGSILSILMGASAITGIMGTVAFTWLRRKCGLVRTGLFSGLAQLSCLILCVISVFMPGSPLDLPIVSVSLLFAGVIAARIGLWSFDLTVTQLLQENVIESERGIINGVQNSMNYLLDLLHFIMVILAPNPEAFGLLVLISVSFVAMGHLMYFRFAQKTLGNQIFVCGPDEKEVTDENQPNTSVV
From the text: To obtain a purified mammalian Fpn protein conducive for biophysical studies, we generated a protein construct with an increased thermal stability (Deshpande et al., 2018). In brief, the construct (Fpn-C2) was generated from full-length mouse Fpn (UniProt: Q9JHI9 [https://www.uniprot.org/uniprot/Q9JHI9]) by deleting two-loop regions (residues 251–290 and 401–449), followed by an overlapping PCR incorporating the E219A mutation to generate Fpn-C2-E219A. The genes were subsequently cloned with a C-terminal GFP fusion into a baculovirus transfer vector (pFastBac1; Thermo Fisher Scientific) and the proteins were expressed using the Bac-to-Bac Baculovirus and Sf9 cells (Thermo Fisher Scientific) expression method according to the manufacturer’s protocol (Thermo Fisher Scientific). For large scale expression of the protein, 6L Sf9 cells (2 × 10^6 cells/ml) were infected with virus at an optimal multiplicity of infection (MOI) of 2.5 in Insect-XPRESS™ Protein-free Insect Cell Medium with L-glutamine (Lonza) and incubated at 27 °C with shaking at 130 rpm. The cells were spun down 48 h post-infection at 1500 × g for 10 min and the pellet stored at −20 °C until further use.
For Fpn-C2 and Fpn-C2-E219A purification (Deshpande et al., 2018), Sf9 cells were thawed at room temperature with the addition of 2 μl Benzonase (250 units/μL, Sigma-Aldrich), 1 mM MgSO4, 0.2 mM PMSF, and lysed by a single pass through cooled EmulsiFlex-C3 homogenizer (Avestin). All subsequent steps were performed at 4 °C. Membranes were harvested by centrifugation at 106,000 × g for 1 h, and pellets resuspended in Buffer A. The protein was subsequently purified as BbFpn, but with the addition of a second wash on the Ni-NTA column with three column volumes of 25 mM imidazole pH 8, 300 mM NaCl, and 0.03% DDM, and with 0.03% DDM instead of LMNG in the elution and SEC purification. The SEC eluted protein was concentrated to ~10 mg/ml as determined by the BCA assay (Thermo Fisher Scientific) method and stored at −80 °C until further use.
Protein samples were purified as above and diluted to 0.03 mM (1.5 mg/ml) for ITC experiments. The buffer used for ITC was 20 mM Tris pH 8, 50 mM NaCl, and 0.004% LMNG. The buffer was degassed in vacuum (2 h) and pretreated with Chelex-100 (Bio-Rad) to remove residual calcium and/or metal ions bound with moderate affinity. This was done by first washing the Chelex-100 beads with water and then running the dialysis buffer through the beads in a gravity flow column. The samples were subsequently dialyzed overnight against their respective gel filtration buffers. ITC measurements were obtained by using a MicroCal iTC 200 calorimeter (GE Healthcare) and MicroCal PEAQ-ITC (Malvern Instruments) at 20 °C. For calcium and strontium binding measurements, a 2 mM solution was prepared in the protein buffer using a standard 1 M stock solution. […]. For MgCl2 and KCl measurements, a 2–5 mM solution was prepared in the respective buffer.
In each experiment, the protein solution was loaded into the sample cell, and the ligand solution was loaded in the syringe. […] To obtain the effective heat of binding, the heat of dilution, measured by injecting the ligand solution alone into buffer, was subtracted prior to data analysis. The data were fitted using the ‘one binding site’ model using the MicroCal PEAQ-ITC Analysis Software (Malvern Instruments), and the apparent molar reaction […] (ΔH°), entropy (ΔS°), dissociation constant (Kd), and stoichiometry of binding (N) were determined. […]

[1] = Supplementary Figs. 5 and 9, one experiment
[2] = Supplementary Fig. 7a, one experiment

wild type BbFpn, sequence (Q6MLJ0 whole entry): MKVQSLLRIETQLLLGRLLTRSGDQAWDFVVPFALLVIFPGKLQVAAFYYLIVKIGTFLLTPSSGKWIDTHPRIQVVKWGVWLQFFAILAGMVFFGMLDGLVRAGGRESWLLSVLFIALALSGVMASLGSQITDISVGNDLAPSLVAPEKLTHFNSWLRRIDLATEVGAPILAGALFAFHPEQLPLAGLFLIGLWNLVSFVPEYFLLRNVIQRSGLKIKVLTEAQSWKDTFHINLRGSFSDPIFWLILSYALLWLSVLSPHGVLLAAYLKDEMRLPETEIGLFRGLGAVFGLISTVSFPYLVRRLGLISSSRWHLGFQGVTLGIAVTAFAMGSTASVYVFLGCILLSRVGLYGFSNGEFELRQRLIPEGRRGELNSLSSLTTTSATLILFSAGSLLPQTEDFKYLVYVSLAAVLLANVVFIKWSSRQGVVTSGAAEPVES
BbFpn Q84E, sequence (Q6MLJ0 whole entry Q84E): as the sequence (Q6MLJ0 whole entry) above, with Q84E counted along it
BbFpn E203A, sequence (Q6MLJ0 whole entry E203A): as the sequence (Q6MLJ0 whole entry) above, with E203A counted along it
BbFpn D24A, sequence (Q6MLJ0 whole entry D24A): as the sequence (Q6MLJ0 whole entry) above, with D24A counted along it

Structure (SMILES): [Ca+2] [Ca^2+, calcium]
- Binding to E203A BbFpn by ITC (in words) (BbFpn E203A): complete loss
- Kd (wild type BbFpn; 20 °C, 20 mM Tris pH 8, 50 mM NaCl, 0.004% LMNG, read-out: Kd (ITC)): 1.2e-05 ± 4e-07 M
- -TΔS, ITC (wild type BbFpn; [1]): -15.3 kcal/mol
- N (sites), ITC (wild type BbFpn; [1]): 0.691 ± 8.5e-3
- ΔG, ITC (wild type BbFpn; [1]): -6.61 kcal/mol
- ΔH, ITC (wild type BbFpn; [1]): 8.68 ± 0.155 kcal/mol
- Kd (wild type BbFpn; Supplementary Figs. 5 and 9, one experiment, read-out: KD (M), ITC): 1.18e-05 M
- Binding to Q84E BbFpn by ITC (in words) (BbFpn Q84E): no Ca^2+ or Sr^2+ binding
- Binding to D24A BbFpn by ITC (in words) (BbFpn D24A): complete loss
- -TΔS, ITC (mouse Fpn (Fpn-C2); [2]): -9.95 kcal/mol
- N (sites), ITC (mouse Fpn (Fpn-C2); [2]): 0.804 ± 4.8e-2
- ΔG, ITC (mouse Fpn (Fpn-C2); [2]): -7.47 kcal/mol
- ΔH, ITC (mouse Fpn (Fpn-C2); [2]): 2.49 ± 0.210 kcal/mol
- Kd (mouse Fpn (Fpn-C2); thermostabilized mouse Fpn-C2, read-out: Kd (ITC)): ~3 µM and 2.7 µM
